Measurements from US4176180A (priority 1977, dated 1979).
Where a name gives a salt, the structure may show the parent alone.

Columns and labels:
[1] = serum concentration of erythromycin two hours after ethyl-succinyl erythromycin; assay type: in vivo, human (ill persons)
[2] = in some patients, after prolonged treatment; cited from earlier work
[3] = tested on: Erysipelothrix insidiosa; conditions: gram positive bacilli; cited from earlier work
[4] = tested on: Brucella melitensis; conditions: gram negative bacilli; cited from earlier work
[5] = tested on: Pasteurella multocida; conditions: gram negative bacilli; cited from earlier work
[6] = tested on: Diplococcus pneumoniae; conditions: gram positive cocci; cited from earlier work
[7] = tested on: Clostridium perfringens; conditions: gram positive bacilli; cited from earlier work
[8] = tested on: Str. pyogenes; conditions: gram positive cocci; cited from earlier work
[9] = tested on: Staph. epidermidis; conditions: gram positive cocci; cited from earlier work
[10] = tested on: Neisseria gonorrhoeae; conditions: gram negative cocci; cited from earlier work
[11] = tested on: Neisseria menigitidis; conditions: gram negative cocci; cited from earlier work
[12] = tested on: Corynebacterium diphteriae; conditions: gram positive bacilli; cited from earlier work
[13] = human, in vivo, 2 h
[14] = tested on: Haemophilus influenzae; conditions: gram negative bacilli; cited from earlier work
[15] = tested on: Plectridium tetani; conditions: gram positive bacilli; cited from earlier work
[16] = tested on: Staph. aureus; conditions: gram positive cocci; cited from earlier work
[17] = tested on: Mycoplasma pneumoniae; conditions: mycoplasmae; cited from earlier work
[18] = tested on: Bacteroides fragilis; conditions: gram negative bacilli; cited from earlier work
[19] = clinical; conditions: human, in vivo
[20] = tested on: Str. faecalis; conditions: gram positive cocci; cited from earlier work
[21] = tested on: Str. non-groupable; conditions: gram positive cocci; cited from earlier work
[22] = tested on: Bordetella pertussis; conditions: gram negative bacilli; cited from earlier work
[23] = tested on: Listeria monocytogenes; conditions: gram positive bacilli; cited from earlier work
[24] = Serum concentration of erythromycine, Average

## CCOC(=O)CCC(=O)O[C@H]1[C@H](O[C@@H]2[C@@H](C)[C@H](O[C@H]3C[C@@](C)(OC)[C@@H](O)[C@H](C)O3)[C@@H](C)C(=O)O[C@H](CC)[C@@](C)(O)[C@H](O)[C@@H](C)C(=O)[C@H](C)C[C@@]2(C)O)O[C@H](C)C[C@@H]1N(C)C [ES, ethyl-succinyl erythromycin]
[1]; two hours following administration
  regularity of the serum concentrations obtained: irregularity in the serum concentrations obtained
[1]; two hours following administration of 600 mg, sum over 9 persons
  Serum concentration of erythromycin, Total: 15360 ng/mL

## CCC(=O)O[C@H]1[C@H](O[C@@H]2[C@@H](C)[C@H](O[C@H]3C[C@@](C)(OC)[C@@H](O)[C@H](C)O3)[C@@H](C)C(=O)O[C@H](CC)[C@@](C)(O)[C@H](O)[C@@H](C)C(=O)[C@H](C)C[C@@]2(C)O)O[C@H](C)C[C@@H]1N(C)C [estolate, lauryl sulfate of the propionic ester of erythromycin]
[2]
  hepatotoxicity: not inconsiderable hepatotoxicity

## CC[C@H]1OC(=O)[C@H](C)[C@@H](O[C@H]2C[C@@](C)(OC)[C@@H](O)[C@H](C)O2)[C@H](C)[C@@H](O[C@@H]2O[C@H](C)C[C@H](N(C)C)[C@H]2O)[C@](C)(O)C[C@@H](C)C(=O)[C@H](C)[C@@H](O)[C@]1(C)O [E, erythromycin]
[3]
  MINIMUM INHIBITING CONCENTRATIONS: 0.06 […] MILILITER OF MEDIUM
[4]
  MINIMUM INHIBITING CONCENTRATIONS: 0.3 […] MILILITER OF MEDIUM
[5]
  MINIMUM INHIBITING CONCENTRATIONS: 0.8 […] MILILITER OF MEDIUM
[6]
  MINIMUM INHIBITING CONCENTRATIONS: 0.01-0.2 […] MILILITER OF MEDIUM
[7]
  MINIMUM INHIBITING CONCENTRATIONS: 0.1-0.2 […] MILILITER OF MEDIUM
[8]
  MINIMUM INHIBITING CONCENTRATIONS: 0.02-0.2 […] MILILITER OF MEDIUM
[9]
  MINIMUM INHIBITING CONCENTRATIONS: 0.2-3.1 […] MILILITER OF MEDIUM
[10]
  MINIMUM INHIBITING CONCENTRATIONS: 0.04-0.4 […] MILILITER OF MEDIUM
[11]
  MINIMUM INHIBITING CONCENTRATIONS: 0.2-1.6 […] MILILITER OF MEDIUM
[12]
  MINIMUM INHIBITING CONCENTRATIONS: 0.2-3.1 […] MILILITER OF MEDIUM
[13]
  Serum concentration of erythromycine, Average: 988 ng/mL
[14]
  MINIMUM INHIBITING CONCENTRATIONS: 0.4-3.1 […] MILILITER OF MEDIUM
[15]
  MINIMUM INHIBITING CONCENTRATIONS: 0.2-0.6 […] MILILITER OF MEDIUM
[16]
  MINIMUM INHIBITING CONCENTRATIONS: 0.01-1.6 […] MILILITER OF MEDIUM
[17]
  MINIMUM INHIBITING CONCENTRATIONS: 0.004-0.016 […] MILILITER OF MEDIUM
[18]
  MINIMUM INHIBITING CONCENTRATIONS: 0.8-6.2 […] MILILITER OF MEDIUM
[19]; Maximum concentrations of erythromycin, Average m
  Cmax: 996 ng/mL
[19]; [24]
  concentration at 1 h: 321 ng/mL
  concentration at 1.5 h: 610 ng/mL
  concentration at 2 h: 988 ng/mL
[20]
  MINIMUM INHIBITING CONCENTRATIONS: 0.6-3.1 […] MILILITER OF MEDIUM
[21]
  MINIMUM INHIBITING CONCENTRATIONS: 0.02-3.1 […] MILILITER OF MEDIUM
[22]
  MINIMUM INHIBITING CONCENTRATIONS: 0.2 […] MILILITER OF MEDIUM
[23]
  MINIMUM INHIBITING CONCENTRATIONS: 0.2 […] MILILITER OF MEDIUM
